Reference: BindingDB's records for patent US20240166639 (Leukos Biotech, 2024)

How the values were obtained:
[1] = target: 5-hydroxytryptamine receptor 2A (Homo sapiens, UniProt P28223); experiment: Competition Binding in Human 5-HT2A Receptor
Description: Serotonin 5-HT2A receptor competition binding experiments were carried out in a polypropilene 96-well plate. In each well was incubated 80 μg of membranes from CHO-5-HT2A cell line prepared in the laboratory (protein concentration=4337 μg/ml), 1 nM [3H]-Ketanserin (47.3 Ci/mmol, 1 mCi/ml, Perkin Elmer NET791250UC) and compounds studied and standard. Non-specific binding was determined in the presence of Methysergide 1 μM (Sigma M137). The reaction mixture (Vt: 250 μl/well) was incubated at 37° C. for 30 min, 200 μL was transfered to GF/B 96-well plate (Millipore, Madrid, Spain) pretreated with 0.5% of PEI and treated with binding buffer (Tris-HCl 50 mM, pH=7.4), after was filtered and washed six times with 250 μl wash buffer (Tris-HCl 50 mM, pH=6.6), before measuring in a microplate beta scintillation counter (Microbeta Trilux, PerkinElmer, Madrid, Spain).

[2] = target: 5-hydroxytryptamine receptor 1B (Homo sapiens, UniProt P28222); experiment: Binding at Human Serotonin Receptors Competition Binding in Human 5-HT1B Receptor Assay
Chain of 5-hydroxytryptamine receptor 1B (P28222 whole entry): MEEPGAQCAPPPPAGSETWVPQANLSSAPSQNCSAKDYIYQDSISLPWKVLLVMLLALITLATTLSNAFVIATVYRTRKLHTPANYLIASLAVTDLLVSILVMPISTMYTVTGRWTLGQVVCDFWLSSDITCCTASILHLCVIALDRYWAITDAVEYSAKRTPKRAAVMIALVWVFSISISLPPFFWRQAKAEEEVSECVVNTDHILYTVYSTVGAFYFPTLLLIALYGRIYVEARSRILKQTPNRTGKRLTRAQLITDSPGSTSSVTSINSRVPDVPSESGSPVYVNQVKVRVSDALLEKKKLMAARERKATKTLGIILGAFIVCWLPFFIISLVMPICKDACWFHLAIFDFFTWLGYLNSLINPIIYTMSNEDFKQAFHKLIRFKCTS
Description: Serotonin 5-HT1B receptor competition binding experiments were carried out in a polypropylene 96-well plate. […] The reaction mixture (Vt: 250 μl/well) was incubated at 25° C. for 90 min, 200 μL was transfered to GF/C 96-well plate (Millipore, Madrid, Spain) pretreated with 0.5% of PEI and treated with binding buffer (Tris-HCl 50 mM, EDTA 1 mM, MgCl2 10 mM, pH=7.4), after was filtered and washed four times with 250 μl wash buffer (Tris-HCl 50 mM, pH=7.4), before measuring in a microplate beta scintillation counter (Microbeta Trilux, PerkinElmer, Madrid, Spain).

Chain of 5-hydroxytryptamine receptor 2A (P28223 whole entry): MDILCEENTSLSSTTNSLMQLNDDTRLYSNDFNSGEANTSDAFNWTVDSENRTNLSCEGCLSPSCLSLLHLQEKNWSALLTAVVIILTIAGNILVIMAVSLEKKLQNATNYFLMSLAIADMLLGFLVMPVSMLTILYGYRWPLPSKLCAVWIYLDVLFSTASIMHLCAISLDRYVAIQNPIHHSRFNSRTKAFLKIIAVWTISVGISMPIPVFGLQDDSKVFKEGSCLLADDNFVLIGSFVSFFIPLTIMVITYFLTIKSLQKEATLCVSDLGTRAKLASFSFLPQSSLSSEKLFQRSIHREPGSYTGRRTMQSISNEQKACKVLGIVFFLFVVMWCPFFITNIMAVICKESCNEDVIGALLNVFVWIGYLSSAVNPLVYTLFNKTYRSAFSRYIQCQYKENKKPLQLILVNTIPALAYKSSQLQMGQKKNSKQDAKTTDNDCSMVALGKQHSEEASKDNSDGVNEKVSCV

Cc1nc(-c2ccc(-c3ccc(C(=O)Nc4cc(OCCN(C)C)c(Br)cn4)cn3)c(C3CC3)c2)no1 [US20240166639, Example 39] gave a Ki [1] of 2500 nM and a Ki [2] of 0.4 nM.
